According to patent US7816361B2, “Immuno inhibitory pyrazolone compounds” (Medigene Limited, priority 2003, dated 2010):

Biological target: T1, Biotinylated human CD80 (hCD80-BT) (Homo sapiens, UniProt P33681)
T1 construct: biotin (biotinylation)
T1 sequence (P33681 35-242 limits assumed): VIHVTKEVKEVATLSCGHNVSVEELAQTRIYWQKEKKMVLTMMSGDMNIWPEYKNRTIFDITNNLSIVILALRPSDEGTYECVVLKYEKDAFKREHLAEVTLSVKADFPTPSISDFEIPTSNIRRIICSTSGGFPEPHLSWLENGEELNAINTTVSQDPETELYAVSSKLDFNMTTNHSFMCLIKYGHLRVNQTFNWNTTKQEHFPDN
Assay: Biacore biomolecular interaction analysis (BIAcore S51)
Format: binding
Details: BIAcore S51, immobilised hCD80-BT
Text: Assay Protocols The Use of Biacore Biomolecular Interaction Analysis
Biotinylated human CD80 (hCD80-BT) is a recombinant soluble form of a membrane bound receptor molecule (CD80) which binds to CD28 to initiate T cell activation. The interaction between CD80 and CD28 has been extensively investigated (Collins et al., 2002). Biotinlyated human HLA-A2-tax is the recombinant soluble form of a membrane bound receptor molecule that has been used in this example as a control protein, and is not expected to interact with the compounds.
The BIAcore S51™ system was used for screening the compounds of Examples 1-4 above. A series S sensor chip CM5 was docked onto the BIAcore S51™. Streptavidin was coupled to the carboxymethyl surface using standard amine coupling. The chip surface was activated with 0.2M EDC/0.05M NHS, followed by binding of streptavidin (0.25 mg/ml in 10 mM sodium acetate pH 5.0) and saturation of unoccupied sites with […].
The BIAcore S51 sensor chip has two separate sensor spots for immobilisation of proteins. hCD80-BT was immobilised on the streptavidin-coated surface of one sensor spot until a response of approximately 3000 RU was observed. A protein to control for non-specific binding of the compound was immobilised on a second sensor spot. The control protein used for these experiments was a biotinylated, soluble form of the human HLA protein.
Dilution series of compounds (1000 nM-0.05 nM) were prepared in running buffer (10 mM, pH 7.4, 150 mM NaCl, 0.005% P20; 5% DMSO).
BIAcore S51™ was run at a flow rate of 30 μl/min using running buffer. Compounds and DMSO standard solutions for correction of data for solvent effects were injected. Data were recorded automatically and were analysed using BIAcore S51 Evaluation software.

Kd [nM] | off-rate on CD80 | Compound
< 100 | 2×10^−2 | CN1C(C)(C)CC(NC(=O)c2ccc(-n3[nH]c(-c4ccccc4)cc3=O)cc2)CC1(C)C [Example 7]
< 100 | 2×10^−2 | CN(C)CCCNC(=O)c1ccc(-n2[nH]c(-c3ccco3)cc2=O)cc1 [Example 11]

Biological target: T1, Biotinylated human CD80 (hCD80-BT)
Assay: not given
Details: endogenous protein ligand CD28; cited from earlier work

Compound | off-rate of CD80-CD28 interaction
CD28: the endogenous protein ligand of CD80 | greater than 0.2 s^−1

Same assay, conditions: endogenous protein ligand CD28; read-out: KD of CD80-CD28 interaction; cited from earlier work

Compound | Kd [nM]
CD28: the endogenous protein ligand of CD80 | 4750

Biological target: T2, CD80-CD28 interaction (Homo sapiens, UniProt P33681)
T2 sequence (P33681 35-242 limits assumed): T1 sequence (P33681 35-242 limits assumed)
Assay: Homogenous Time Resolved Fluorescence (HTRF) assay, cell free
Format: binding
Details: inhibition of CD80-CD28 interaction; concentration series 100 μM-1.7 nM; 4 hours at room temperature; read-out: Activity Rating (EC50) in the HTRF assay
Protocol: Homogenous Time Resolved Fluorescence Assay
The examples described above were tested in a cell free Homogenous Time Resolved Fluorescence (HTRF) assay to determine their activity as inhibitors of the CD80-CD28 interaction.
In the assay, europium and allophycocyanin (APC) are associated with CD28 and CD80 indirectly (through antibody linkers) to form a complex, which brings the europium and APC into close proximity to generate a signal. The complex comprises the following six proteins: fluorescent label 1, linker antibody 1, CD28 fusion protein, CD80 fusion protein, linker antibody 2, and fluorescent label 2. The table below describes these reagents in greater detail.
On formation of the complex, europium and APC are brought into proximity and a signal is generated.
Non-specific interaction was measured by substituting a mouse Fab fragment (C215) for the CD80 mouse Fab fragment fusion protein (1.9 μg/ml). The assay was carried out in black 384 well plates in a final volume of 30 μl. Assay buffer: 50 mM Tris-HCl, 150 mM NaCl pH7.8, containing 0.1% BSA (w/v) added just prior to use.
Compounds were added to the above reagents in a concentration series ranging between 100 μM-1.7 nM. The reaction was incubated for 4 hours at room temperature. Dual measurements were made using a Wallac Victor 1420 Multilabel Counter. First measurement: excitation 340 nm, emission 665 nm, delay 50 μs, window time 200 μs. second measurement: excitation 340 nm, emission 615 nm, delay 50 μs, window time 200 μs. Counts were automatically corrected for fluorescence crossover, quenching and background. The EC50 activities of compounds tested are recorded as: EC50: *=>10 μM, **=1-10 μM, ***=<1 μM.

EC50 [nM] | Compound
1000 to 10000 | O=C(NCCCNC1CCCCC1)c1ccc(-n2[nH]c(-c3ccccn3)cc2=O)cc1 [Example 13]
1000 to 10000 | CN1C(C)(C)CC(NC(=O)c2ccc(-n3[nH]c(-c4cc5ccccc5o4)cc3=O)cc2)CC1(C)C [Example 34]
< 1000 | CN1C(C)(C)CC(NC(=O)c2ccc(-n3[nH]c(-c4cccc(F)c4)cc3=O)cc2)CC1(C)C [Example 28]
< 1000 | CN(C)CCCNC(=O)c1ccc(-n2[nH]c(-c3cnccn3)cc2=O)cc1 [Example 30]
1000 to 10000 | O=C(NCCCNC1CCCCC1)c1ccc(-n2[nH]c(-c3ccccc3)cc2=O)cc1 [Example 9]
1000 to 10000 | O=C(NCCCCN1CCCC1)c1ccc(-n2[nH]c(-c3cccnc3)cc2=O)cc1 [Example 25]
1000 to 10000 | CN1C(C)(C)CC(NC(=O)c2ccc(-n3[nH]c(-c4ccccc4)cc3=O)cc2)CC1(C)C [Example 7]
< 1000 | CN1C(C)(C)CC(NC(=O)c2ccc(-n3[nH]c(-c4ccco4)cc3=O)cc2)CC1(C)C [Example 19]
1000 to 10000 | CN1C(C)(C)CC(NC(=O)c2ccc(-n3[nH]c(-c4cccnc4)cc3=O)cc2)CC1(C)C [Example 23]
< 1000 | CN(C)CCCNC(=O)c1ccc(-n2[nH]c(-c3cccc(F)c3)cc2=O)cc1 [Example 26]
1000 to 10000 | CN1C(C)(C)CC(NC(=O)c2ccc(-n3[nH]c(-c4ccoc4)cc3=O)cc2)CC1(C)C [Example 20]
1000 to 10000 | CN(C)CCCNC(=O)c1ccc(-n2[nH]c(-c3ccoc3)cc2=O)cc1 [Example 17]
1000 to 10000 | O=C(NCCCCN1CCCC1)c1ccc(-n2[nH]c(-c3cnccn3)cc2=O)cc1 [Example 29]
1000 to 10000 | O=C(NCCCCN1CCCC1)c1ccc(-n2[nH]c(-c3cc4ccccc4o3)cc2=O)cc1 [Example 31]
1000 to 10000 | CN(C)CCCNC(=O)c1ccc(-n2[nH]c(-c3cc4ccccc4o3)cc2=O)cc1 [Example 32]
< 1000 | CN1C(C)(C)CC(NC(=O)c2ccc(-n3[nH]c(-c4ccccn4)cc3=O)cc2)CC1(C)C [Example 16]
1000 to 10000 | O=C(NCCCCN1CCCC1)c1ccc(-n2[nH]c(-c3ccoc3)cc2=O)cc1 [Example 22]
< 1000 | O=C(NCCCNC1CCCCC1)c1ccc(-n2[nH]c(-c3ccco3)cc2=O)cc1 [Example 14]

The remaining lines, values behind:

Compound | EC50 [nM]
O=C(NCCCNC1CCCCC1)c1ccc(-n2[nH]c(-c3cccc(F)c3)cc2=O)cc1 [Example 27] | 1000 to 10000
O=C(NCCCCN1CCCC1)c1ccc(-n2[nH]c(-c3ccco3)cc2=O)cc1 [Example 21] | 1000 to 10000
CN(C)CCCNC(=O)c1ccc(-n2[nH]c(-c3ccccn3)cc2=O)cc1 [Example 10] | < 1000
O=C(NCCCNC1CCCCC1)c1ccc(-n2[nH]c(-c3ccoc3)cc2=O)cc1 [Example 18] | < 1000
O=C(NCCCCN1CCCC1)c1ccc(-n2[nH]c(-c3ccccc3)cc2=O)cc1 [Example 8] | < 1000
CN(C)CCCNC(=O)c1ccc(-n2[nH]c(-c3cccnc3)cc2=O)cc1 [Example 12] | 1000 to 10000
CN1C(C)(C)CC(NC(=O)c2ccc(-n3[nH]c(-c4ccno4)cc3=O)cc2)CC1(C)C [Example 2, 4-(3-Isoxazol-5-yl-5-oxo-2,5-dihydro-pyrazol-1-yl)-N-(1,2,2,6,6-pentamethyl-piperidin-4-yl)-benzamide] | > 10000
CN(C)CCCNC(=O)c1ccc(-n2[nH]c(-c3ccccc3)cc2=O)cc1 [Example 5] | 1000 to 10000
CN(C)CCCNC(=O)c1ccc(-n2[nH]c(-c3ccco3)cc2=O)cc1 [Example 11] | < 1000
O=C(NCCCNC1CCCCC1)c1ccc(-n2[nH]c(-c3cccnc3)cc2=O)cc1 [Example 15] | 1000 to 10000
O=C(NCCCCN1CCCC1)c1ccc(-n2[nH]c(-c3ccccn3)cc2=O)cc1 [Example 24] | < 1000
O=C(NCCCNC1CCCCC1)c1ccc(-n2[nH]c(-c3cc4ccccc4o3)cc2=O)cc1 [Example 33] | 1000 to 10000
O=C(NCCN1CCN(Cc2ccccc2)CC1)c1ccc(-n2[nH]c(-c3ccccc3)cc2=O)cc1 [Example 6] | > 10000
Cc1c(-c2ccco2)[nH]n(-c2ccc(C(=O)NC3CC(C)(C)N(C)C(C)(C)C3)cc2)c1=O [Example 3, 4-(3-Furan-2-yl-4-methyl-5-oxo-2,5-dihydro-pyrazol-1-yl)-N-(1,2,2,6,6-pentamethyl-piperidin-4-yl)-benzamide] | > 10000

Test system: IL-2 production by human Jurkat T cells (with Raji cells, anti-CD3)
Assay: Inhibition of production of interleukin-2 (IL-2) by human Jurkat T cells
Format: cell-based
Details: 5 hours
Protocol: Inhibition of Production of Interleukin-2 (IL-2) by Human Jurkat T Cells.
Human Raji cells were dispensed at a concentration of 2×10^5 cells per well in RPMI-1640 medium supplemented with 10% fetal calf serum, 1% penicillin/streptomycin, 1% glutamine (RPMI medium) in a 96-well round bottom microtitre plate. Compounds under investigation (dissolved in 100% DMSO) were diluted to eight-fold the desired final concentration in RPMI medium and added to the required final concentration for a total volume of 200 μl per well. After 20 minutes incubation at 37° C., Jurkat T cells were added at a concentration of 2×10^5 cells per well. Monoclonal antibody to CD3 (UCHT1, R&D Systems) was added to the cultures at a final concentration of 1 μg per ml, and where indicated, monoclonal antibody to CD28 (CD28.2, BD-Pharmingen) was also added at a concentration of 2.5 μg per ml. Cells were cultured at 37° C. for 5 hours, after which the plates were centrifuged and the supernatants harvested for IL-2 ELISA assay using the IL-2 Eli-pair kit (DIACLONE Research, Besancon, France) according to the manufacturers instructions.

Compound | inhibition at 30 µM [%]
CN(C)CCCNC(=O)c1ccc(-n2[nH]c(-c3cccc(F)c3)cc2=O)cc1 [Example 26] | 52
